Assay results taken from patent publication US20230233566A1, “INHIBITION OF BMI1 ELIMINATES CANCER STEM CELLS AND ACTIVATES ANTITUMOR IMMUNITY” (The Regents of the University of California, priority 2020, published 2023).

Test system: cGAS-STING-IRF3 signaling
Experiment: Western blot of phosphorylated STING, TBK1, IRF3
Format: cell-based, human
Protocol: Cells were lysed using the radioimmunoprecipitation assay (RIPA) buffer (Sigma-Aldrich, Cat #R0278) added with a cocktail of protease inhibitors (Thermo Fisher Scientific, Cat ##78430) and phosphatase inhibitors (Sigma-Aldrich, Cat #4906845001). Protein extracts were resolved on a 10% or 15% SDS polyacrylamide gel and then transferred to a polyvinylidene difluoride membrane. Membranes were blocked with 5% milk for 1 h and incubated with primary antibodies overnight at 4° C. Primary antibodies used in this study were: anti-phospho-STING (Ser366) (1:1,000; Cell Signaling Technology, Cat #19781), anti-STING (1:1,000; Cell Signaling Technology, Cat #13647), anti-phospho-TBK1 (Ser172) (1:1,000; Cell Signaling Technology, Cat #5483), anti-TBK1 (1:1,000; Cell Signaling Technology, Cat #3504), anti-phospho-IRF3 (Ser396) (1:1,000; Cell Signaling Technology, Cat #29047), anti-IRF3 (1:1,000; Cell Signaling Technology, Cat #4302), anti-BMI1 (1:1,000; Cell Signaling Technology, Cat #6964), anti-Ubiquityl-Histone H2A (Lys119) (1:1000, Cell Signaling Technology, Cat #8240), anti-phospho Histone H2A.X (Ser139) (1:1000; Cell Signaling Technology, Cat #9718), and anti-GAPDH (1:1000; Cell Signaling Technology, Cat #5174), anti-Histone H3 (1:2,000; Cell Signaling Technology, Cat #4499). The signals were detected using the Clarity Western ECL kit (Bio-Rad, Cat #1705060). To measure the protein levels of CCL5, CXCL9, CXCL10 and CXCL11, cells were treated with PTC209 or shBMI1 knockdown for 48 hr. After treatment, supernatants were collected, and the protein levels of CCL5, CXCL9, CXCL10 and CXCL11 were measured with ELISA (R&D Systems, Cat #DRN00B, DCX900, DIP100, DCX110) according to the manufacturer's instructions.

## COc1cc(Br)c(Nc2nc(-c3c(C)nc4ncccn34)cs2)c(Br)c1 [PTC209, N-(2,6-dibromo-4-methoxyphenyl)-4-(2-methylimidazo[1,2-a]pyrimidin-3-yl)thiazol-2-amine]
SCC1 cells
  phosphorylation of STING (S366), TBK1 (S172) and IRF3 (S396): induction of phosphorylation of STING (S366), TBK1 (S172) and IRF3 (S396) in SCC1 cells
SCC23 cells
  phosphorylation of STING (S366), TBK1 (S172) and IRF3 (S396): induction of phosphorylation of STING (S366), TBK1 (S172) and IRF3 (S396) in SCC23 cells
